Data reported in patent EP1339379B1, “NOVEL USE OF PROTEIN HYDROLYSATES” (Henkel Kommanditgesellschaft auf Aktien, priority 2000, dated 2002).

Assay: Hair-restructuring effect by HP-DSC: melting point of permed hair strands after post-treatment with the active
Settings: melting point of the hair (DSC, Perkin Elmer DSC-7); permed strands dipped 10 min at 23°C in 1% aqueous solution of the active at pH 3, rinsed 1 min, dried, rested 16 h; comparison without post-treatment 149,8
From the text: Strähnen der Fa. Alkinco (0,5g, Code 6634) wurden einer herkömmlichen Dauerwellbehandlungen mit dem Handelsprodukt Poly Lock-Normale Dauerwelle unterzogen. Im Rahmen dieser Dauerwellbehandlung wurden die Fasern in einem ersten Schritt für 40 Minuten bei Raumtemperatur der Reduktionslösung (enthaltend 7,9 Gew.-% Thioglykolsäure) ausgesetzt, mit reinem Wasser gespült und anschließend bei Raumtemperatur für 10 Minuten fixiert (Oxidationslösung, enthaltend 2,6 Gew.-% Wasserstoffperoxid). Nach der oxidativen Behandlung wurden die Fasern gespült und getrocknet.
Die Strähnen wurden jeweils bei einer Temperatur von 23°C 10 Minuten in eine 1% ige wäßrige Lösung der jeweiligen Wirkstoffe bei einem pH - Wert von 3, welcher mit Natronlauge oder Salzsäure eingestellt wurde, getaucht. Anschließend wurde jede Haarsträhne 1 Minute mit klarem Wasser gespült, getrocknet und 16 h ruhen gelassen.
Mittels einer DSC-Analyse (Perkin Elmer DSC-7) wurden die folgenden in Tabelle 1 dargestellten Schmelzpunkte ermittelt. Eine genaue Beschreibung der Methode findet sich beispielsweise in der DE 196 173 95 A1

Substance	Schmelzpunkt in °C
Poly-D/L-Alanin	151,8 °C
Poly-L-Serin	151,9 °C
